Converted amounts (≈) assume the structure as drawn. Peptide text beside a SMILES is read from it. * marks the point of attachment. Cbz = O=C(OCc1ccccc1)*; OtBu = CC(C)(C)O*
Legend:
PC-3 = assay: cells; details: Homo sapiens
Description: Antiproliferative activity against human PC3 cell line

Cathepsin S = Cathepsin S (Homo sapiens, UniProt P25774)
Description: Inhibition of cathepsin S

Cathepsin B = Cathepsin B (Homo sapiens, UniProt P07858)
Description: Inhibition of cathepsin B

physchem = details: PBS, pH 7.4
Description: Solubility in PBS at pH 7.4

in vitro = details: human, plasma
Description: Stability in human plasma after 120 mins

Chain of Cathepsin S (P25774 whole entry): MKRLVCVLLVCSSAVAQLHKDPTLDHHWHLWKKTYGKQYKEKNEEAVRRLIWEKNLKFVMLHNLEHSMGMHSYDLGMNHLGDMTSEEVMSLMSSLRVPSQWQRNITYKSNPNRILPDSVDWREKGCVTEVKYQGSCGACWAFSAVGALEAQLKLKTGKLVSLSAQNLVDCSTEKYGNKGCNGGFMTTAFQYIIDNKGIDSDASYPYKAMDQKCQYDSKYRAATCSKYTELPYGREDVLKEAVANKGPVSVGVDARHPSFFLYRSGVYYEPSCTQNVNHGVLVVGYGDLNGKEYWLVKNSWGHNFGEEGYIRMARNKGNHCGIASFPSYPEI

| IC50 (PC-3) | IC50 (Cathepsin S) | IC50 (Cathepsin B) | solubility (physchem) | remaining at 2 h (in vitro) | Ki (Cathepsin B) | Ki (Cathepsin S) | SMILES |
| --- | --- | --- | --- | --- | --- | --- | --- |
| 0.375 µM | – | – | – | – | – | – | CC[C@H](C)[C@H](NC(=O)OCc1ccccc1)C(=O)N[C@@H](CCC(=O)OC(C)(C)C)C(=O)N[C@@H](C)C(=O)N[C@H](C=O)CC(C)C (Cbz-IE(OtBu)AL-aldehyde) |
| – | 12 µM | > 150 µM | – | – | – | – | CC[C@H](C)[C@H](NC(=O)OCc1ccccc1)C(=O)N[C@@H](CS(=O)(=O)Cc1ccccc1)C(=O)N[C@@H](C)C(=O)N[C@H](/C=C/S(C)(=O)=O)CC(C)C |
| – | 9 µM | 27 µM | – | – | – | – | CC[C@H](C)[C@H](NC(=O)OCc1ccccc1)C(=O)N[C@@H](Cc1ccccc1)C(=O)N[C@@H](C)C(=O)N[C@H](/C=C/S(C)(=O)=O)CC(C)C |
| – | – | – | 470 µM (≈ 282 µg/mL) | 96% | – | – | Cc1ccc(S(=O)(=O)N[C@@H](CC(=O)NCC(C)(C)C)C(=O)N[C@@H](C)C(=O)N[C@H](/C=C/S(C)(=O)=O)CC(C)C)cc1 |
| – | 21 µM | > 150 µM | – | – | – | – | CC(C)C[C@@H](/C=C/S(C)(=O)=O)NC(=O)CNC(=O)[C@H](CCC(=O)OC(C)(C)C)NC(=O)OCc1ccccc1 |
| 1.75 µM | – | – | – | – | – | – | CC(C)C[C@@H](/C=C/S(C)(=O)=O)NC(=O)[C@H](C)NC(=O)[C@H](CCC(=O)OC(C)(C)C)NC(=O)c1ccccc1 |
| – | 48 µM | 54 µM | – | – | – | – | CC[C@H](C)[C@H](NC(=O)OCc1ccccc1)C(=O)N[C@@H](CCC(N)=O)C(=O)N[C@@H](C)C(=O)N[C@H](/C=C/S(C)(=O)=O)CC(C)C |
| – | – | – | – | – | 18 µM | 0.046 µM | CC(C)C[C@@H](C#N)NC(=O)[C@H](CC(C)C)NC(=O)[C@H](CC(C)C)NC(=O)OCc1ccccc1 |
| – | 12 µM | > 150 µM | – | – | – | – | CC(=O)N[C@@H](CCc1ccccc1)C(=O)N[C@@H](CC(C)C)C(=O)NCC(=O)N[C@H](/C=C/S(C)(=O)=O)CC(C)C |
| – | – | – | 13 µM (≈ 8.69 µg/mL) | 86% | 72 µM | 39 µM | Cc1ccc(S(=O)(=O)N[C@@H](CC(=O)NCC(C)(C)C)C(=O)N[C@@H](C)C(=O)N[C@@H](CC(C)C)C(=O)c2nnc(-c3ccccc3)o2)cc1 |
| – | 13 µM | 23 µM | – | – | – | – | CC[C@H](C)[C@H](NC(=O)OCc1ccccc1)C(=O)N1CCC[C@H]1C(=O)N[C@@H](C)C(=O)N[C@H](/C=C/S(C)(=O)=O)CC(C)C |
| – | – | – | < 10 µM | 72% | – | – | Cc1ccc(S(=O)(=O)N[C@@H](CC(=O)NCC(C)(C)C)C(=O)N[C@@H](C)C(=O)N[C@@H](CC(C)C)C(=O)c2nnc(-c3ccc(N(C)C)cc3)o2)cc1 |

Continued, compound first:

| SMILES | IC50 (PC-3) | IC50 (Cathepsin S) | IC50 (Cathepsin B) | solubility (physchem) | remaining at 2 h (in vitro) | Ki (Cathepsin B) | Ki (Cathepsin S) |
| --- | --- | --- | --- | --- | --- | --- | --- |
| Cc1ccc(S(=O)(=O)N[C@@H](CCC(=O)OC(C)(C)C)C(=O)N[C@@H](C)C(=O)N[C@H](/C=C/S(C)(=O)=O)CC(C)C)cc1 | 0.5 µM | 67 µM | 13 µM | 48 µM (≈ 28.9 µg/mL) | 7% | – | – |
| CC[C@H](C)[C@H](NC(=O)OCc1ccccc1)C(=O)N[C@@H](CCC(=O)NC(C)(C)C)C(=O)N[C@@H](C)C(=O)N[C@H](/C=C/S(C)(=O)=O)CC(C)C | 5000 µM | 3.3 µM | 51 µM | 57 µM (≈ 39.6 µg/mL) | 89% | – | – |
| CC(C)C[C@@H](/C=C/S(C)(=O)=O)NC(=O)[C@H](CO)NC(=O)[C@H](CCC(=O)OC(C)(C)C)NS(=O)(=O)c1ccccc1 | 4 µM | – | – | – | – | – | – |
| CC(C)C[C@@H](/C=C/S(C)(=O)=O)NC(=O)[C@H](CO)NC(=O)[C@H](CCC(=O)OC(C)(C)C)NC(=O)OCc1ccccc1 | 3 µM | – | – | – | – | – | – |
| CC[C@H](C)[C@H](NC(=O)OCc1ccccc1)C(=O)N[C@@H](CCC(=O)OC1CCCCC1)C(=O)N[C@@H](C)C(=O)N[C@H](/C=C/S(C)(=O)=O)CC(C)C | – | – | – | – | 0% | – | – |
| Cc1ccc(S(=O)(=O)N[C@@H](CC(=O)NCC(C)(C)C)C(=O)N[C@@H](CO)C(=O)N[C@H](/C=C/S(C)(=O)=O)CC(C)C)cc1 | 2.4 µM | > 150 µM | > 150 µM | 381 µM (≈ 235 µg/mL) | 99% | – | – |
| CC(C)C[C@@H](/C=C/S(C)(=O)=O)NC(=O)[C@H](C)NC(=O)[C@H](CCC(=O)OC(C)(C)C)NC(=O)C(c1ccccc1)c1ccccc1 | 0.5 µM | – | – | < 10 µM | 1% | – | – |
| CC(=O)N[C@@H](CCc1ccccc1)C(=O)N[C@@H](CC(C)C)C(=O)N[C@@H](Cc1ccccc1)C(=O)N[C@H](/C=C/S(C)(=O)=O)CC(C)C | 3 µM | 0.15 µM | 0.85 µM | – | 100% | – | – |
| CC[C@H](C)[C@H](NC(=O)OCc1ccccc1)C(=O)N[C@@H](CCc1ccccc1)C(=O)N[C@@H](C)C(=O)N[C@H](/C=C/S(C)(=O)=O)CC(C)C | 0.6 µM | 10 µM | 41 µM | < 10 µM | 22% | – | – |
| CC(C)C[C@@H](C=O)NC(=O)[C@H](CC(C)C)NC(=O)[C@H](CC(C)C)NC(=O)OCc1ccccc1 [MG-132] (Cbz-Leu-Leu-Leu-aldehyde) | 0.6 µM | – | – | – | – | 0.012 µM | – |
| CC(=O)N[C@@H](CCc1ccccc1)C(=O)N[C@@H](CC(C)C)C(=O)N[C@@H](C)C(=O)N[C@H](/C=C/S(C)(=O)=O)CC(C)C | – | 6.9 µM | 1.6 µM | – | – | – | – |
| COC[C@H](NC(=O)[C@H](CC(=O)NCC(C)(C)C)NS(=O)(=O)c1ccc(C)cc1)C(=O)N[C@@H](CC(C)C)C(=O)c1nnc(-c2ccccc2)o1 | – | – | – | 37 µM (≈ 25.9 µg/mL) | 79% | 44 µM | 8.1 µM |
| CC[C@H](C)[C@H](NC(=O)OCc1ccccc1)C(=O)N[C@@H](CC(=O)NCC(C)(C)C)C(=O)N[C@@H](C)C(=O)N[C@H](/C=C/S(C)(=O)=O)CC(C)C | 0.2 µM | – | – | < 10 µM | 90% | – | – |
| CC[C@H](C)[C@H](NC(=O)OCc1ccccc1)C(=O)N[C@@H](CS(C)(=O)=O)C(=O)N[C@@H](C)C(=O)N[C@H](/C=C/S(C)(=O)=O)CC(C)C | – | 13 µM | 140 µM | – | – | – | – |
| CC[C@H](C)[C@H](NC(=O)OCc1ccccc1)C(=O)N[C@@H](CCC(=O)OC(C)(C)C)C(=O)N[C@@H](C)C(=O)N[C@H](/C=C/S(C)(=O)=O)CC(C)C | 2 µM | 36 µM | 29 µM | < 10 µM | 52% | – | – |
| CC[C@H](C)[C@H](NC(=O)OCc1ccccc1)C(=O)N[C@@H](CCCC(=O)OC(C)(C)C)C(=O)N[C@@H](C)C(=O)N[C@H](/C=C/S(C)(=O)=O)CC(C)C | – | 7.1 µM | 18 µM | – | 20% | – | – |
| Cc1ccc(S(=O)(=O)N[C@@H](CC(=O)NCC(C)(C)C)C(=O)NC(C)(C)C(=O)N[C@H](/C=C/S(C)(=O)=O)CC(C)C)cc1 | – | – | – | 500 µM (≈ 307 µg/mL) | 100% | – | – |
| CC[C@H](C)[C@H](NC(=O)OCc1ccccc1)C(=O)N[C@@H](COCc1ccccc1)C(=O)N[C@@H](C)C(=O)N[C@H](/C=C/S(C)(=O)=O)CC(C)C | 0.45 µM | 35 µM | 38 µM | – | 83% | – | – |
| Cc1ccc(S(=O)(=O)N[C@@H](CC(=O)NCC(C)(C)C)C(=O)N[C@@H](C)C(=O)NC(C)(C)C(=O)c2nnc(-c3ccccc3)o2)cc1 | – | – | – | 249 µM (≈ 160 µg/mL) | 100% | – | – |
| CC[C@H](C)[C@H](NC(=O)OCc1ccccc1)C(=O)N[C@@H](CC(=O)OC(C)(C)C)C(=O)N[C@@H](C)C(=O)N[C@H](/C=C/S(C)(=O)=O)CC(C)C | 3.25 µM | – | – | – | – | – | – |
| CC(=O)N[C@@H](CCc1ccccc1)C(=O)N[C@@H](CC(C)C)C(=O)N[C@H](C)C(=O)N[C@H](/C=C/S(C)(=O)=O)CC(C)C | – | 77 µM | > 150 µM | – | – | – | – |
| CC[C@H](C)[C@H](NC(=O)OCc1ccccc1)C(=O)N[C@@H](CCC(=O)NC(C)(C)CC)C(=O)N[C@@H](C)C(=O)N[C@H](/C=C/S(C)(=O)=O)CC(C)C | 0.55 µM | – | – | 20 µM (≈ 14.2 µg/mL) | 83% | – | – |
| Cc1cccc(S(=O)(=O)N[C@@H](CC(=O)NCC(C)(C)C)C(=O)N[C@@H](C)C(=O)N[C@@H](CC(C)C)C(=O)c2nnc(-c3ccccc3)o2)c1 | – | – | – | < 10 µM | 28% | – | – |
| CC[C@H](C)[C@H](NC(=O)OCc1ccccc1)C(=O)N[C@@H](CCC(=O)NC(C)C)C(=O)N[C@@H](C)C(=O)N[C@H](/C=C/S(C)(=O)=O)CC(C)C | 3000 µM | 41 µM | > 150 µM | – | 89% | – | – |
| CC(C)C[C@@H](/C=C/S(C)(=O)=O)NC(=O)[C@H](C)NC(=O)[C@H](CCC(=O)OC(C)(C)C)NC(=O)OCc1ccccc1 | 6.5 µM | 3 µM | 20 µM | < 10 µM | 1% | – | – |
| CC(=O)N[C@@H](CCC(=O)OC(C)(C)C)C(=O)N[C@@H](C)C(=O)N[C@H](/C=C/S(C)(=O)=O)CC(C)C | 7.5 µM | 170 µM | 77 µM | – | – | – | – |
| CC[C@H](C)[C@H](NC(=O)OCc1ccccc1)C(=O)N[C@@H](CC(C)C)C(=O)N[C@@H](C)C(=O)N[C@H](/C=C/S(C)(=O)=O)CC(C)C | 0.8 µM | 0.7 µM | 5.8 µM | – | 66% | – | – |

Source: ChEMBL document CHEMBL1147675, “Optimization of subsite binding to the beta5 subunit of the human 20S proteasome using vinyl sulfones and 2-keto-1,3,4-oxadiazoles: syntheses and cellular properties of potent, selective proteasome inhibitors” (J Med Chem, 2006)
